This is an account of results in ChEMBL document CHEMBL4138157, “Synthesis, antibacterial properties and 2D-QSAR studies of quinolone-triazole conjugates” (2018).

The subject of assay [1] is Salmonella typhi. Nature of the assay: Antibacterial activity against Salmonella typhi ATCC 19430 after 18 hrs by agar dilution method. Type of assay: functional, Salmonella enterica subsp. enterica serovar Typhi. To be noted: Salmonella enterica, ATCC 19430, 18 h. For orientation: In agar dilution, organisms are placed on agar that contains the substance at set levels.

The test system of assay [2] is Streptococcus pyogenes. The assay is described as follows: Antibacterial activity against Streptococcus pyogenes ATCC 19615 after 18 hrs by agar dilution method. To be noted: ATCC 19615, 18 h. In kind it is functional.
Assay [3] has as its system Pseudomonas aeruginosa. Nature of the assay: Antibacterial activity against Pseudomonas aeruginosa ATCC 27853 after 18 hrs by agar dilution method. In kind it is functional. To be noted: ATCC 27853, 18 h.
Assay [4] concerns Escherichia coli. The assay is described as follows: Antibacterial activity against Escherichia coli ATCC 25922 after 18 hrs by agar dilution method. In kind it is functional. Conditions: ATCC 25922, 18 h.

≈ marks a conversion by molar mass, not a printed value. Some results are limits rather than exact numbers.

In general, MIC refers to the least concentration at which growth counts as inhibited. Read a low MIC as a more susceptible organism. `CC(C)[C@@H](C(=O)O)n1cc(CN2CCN(c3cc4c(cc3F)c(=O)c(C(=O)O)cn4C3CC3)CC2)nn1`: the MIC in assay [1], in assay [2] and in assay [3] was 2440 µM (≈ 1250 µg/mL) in each case.
`CC(C)C[C@@H](C(=O)O)n1cc(CN2CCN(c3cc4c(cc3F)c(=O)c(C(=O)O)cn4C3CC3)CC2)nn1`: the MIC in assay [1], in assay [2] and in assay [3] was 2370 µM (≈ 1250 µg/mL) throughout.
As for `O=C(O)c1cn(C2CC2)c2cc(N3CCNCC3)c(F)cc2c1=O` [CIPROFLOXACIN], the MIC was 7.2 µM (≈ 2.39 µg/mL) in assay [1], 3770 µM (≈ 1250 µg/mL) in assay [2] and 14.5 µM (≈ 4.8 µg/mL) in assay [3].
For the molecule `C#CCN1CCN(c2cc3c(cc2F)c(=O)c(C(=O)O)cn3CC)CC1`, the MIC was above 2870 µM in assay [4], 1430 µM (≈ 512 µg/mL) in assay [1], 1430 µM (≈ 512 µg/mL) in assay [2] and above 2870 µM in assay [3].
Turning to `CCn1cc(C(=O)O)c(=O)c2cc(F)c(N3CCNCC3)cc21` [NORFLOXACIN], the results for the MIC in assay [1], in assay [2] and in assay [3] were 7.5 µM (≈ 2.4 µg/mL), 1960 µM (≈ 625 µg/mL) and 15 µM (≈ 4.79 µg/mL), respectively.
For `CCn1cc(C(=O)O)c(=O)c2cnc(N3CCN(Cc4cn([C@@H](C)C(=O)O)nn4)CC3)nc21`, the MIC turned out to be 2740 µM (≈ 1250 µg/mL) in assay [1], 1370 µM (≈ 625 µg/mL) in assay [2] and 1370 µM (≈ 625 µg/mL) in assay [3].
In the case of `CCn1cc(C(=O)O)c(=O)c2cc(F)c(N3CCN(Cc4cn(-c5ccc([N+](=O)[O-])cc5)nn4)CC3)cc21`, the MIC in assay [4] was 0.2 µM (≈ 0.104 µg/mL); in assay [1], 0.2 µM (≈ 0.104 µg/mL); in assay [2], 15.3 µM (≈ 7.98 µg/mL); in assay [3], above 1960 µM.
In the case of `C#CCN1CCN(c2cc3c(cc2F)c(=O)c(C(=O)O)cn3C2CC2)CC1`, the MIC in assay [4] was above 2770 µM; in assay [1], 1390 µM (≈ 512 µg/mL); in assay [2], above 2770 µM; in assay [3], above 2770 µM.
On to `O=C(O)c1cn(C2CC2)c2cc(N3CCN(Cc4cn([C@@H](Cc5ccccc5)C(=O)O)nn4)CC3)c(F)cc2c1=O`, for which the MIC in assay [1], in assay [2] and in assay [3] was 2230 µM (≈ 1250 µg/mL) each time.
As to `CCn1cc(C(=O)O)c(=O)c2cnc(N3CCN(Cc4cn(-c5ccccc5)nn4)CC3)nc21`, the MIC is 0.3 µM (≈ 0.138 µg/mL) in assay [4], 0.3 µM (≈ 0.138 µg/mL) in assay [1], 556 µM (≈ 256 µg/mL) in assay [2] and 1110 µM (≈ 512 µg/mL) in assay [3].
On to `C[C@@H](C(=O)O)n1cc(CN2CCN(c3cc4c(cc3F)c(=O)c(C(=O)O)cn4C3CC3)CC2)nn1`, for which the MIC in assay [1], in assay [2] and in assay [3] was 2580 µM (≈ 1250 µg/mL) throughout.
As to `CCn1cc(C(=O)O)c(=O)c2cc(F)c(N3CCN(Cc4cn([C@H](C(=O)O)C(C)C)nn4)CC3)cc21`, the results for the MIC in assay [1], in assay [2] and in assay [3] were 2500 µM (≈ 1250 µg/mL), 1250 µM (≈ 625 µg/mL) and 2500 µM (≈ 1250 µg/mL), respectively.
On to `CCn1cc(C(=O)O)c(=O)c2cnc(N3CCNCC3)nc21` [PIPEMIDIC ACID], for which the MIC in assay [1] amounted to 7.9 µM (≈ 2.4 µg/mL); in assay [2] it was 2060 µM (≈ 625 µg/mL); in assay [3], 64.3 µM (≈ 19.5 µg/mL).
As for `CCn1cc(C(=O)O)c(=O)c2cc(F)c(N3CCN(Cc4cn([C@@H](CC(C)C)C(=O)O)nn4)CC3)cc21`, the minimum inhibitory concentration (MIC) came out at 2430 µM (≈ 1250 µg/mL) in assay [1], 1210 µM (≈ 625 µg/mL) in assay [2] and 1210 µM (≈ 625 µg/mL) in assay [3].
Consider `CCn1cc(C(=O)O)c(=O)c2cc(F)c(N3CCN(Cc4cn(CC(=O)N[C@@H](Cc5ccccc5)C(=O)O)nn4)CC3)cc21`, for which the MIC in assay [1] came out at 2060 µM (≈ 1250 µg/mL); in assay [2] it was 1030 µM (≈ 625 µg/mL); in assay [3], 2060 µM (≈ 1250 µg/mL).
In the case of `CCn1cc(C(=O)O)c(=O)c2cc(F)c(N3CCN(Cc4cn(-c5ccc(C)cc5)nn4)CC3)cc21`, the MIC in assay [4] is 0.2 µM (≈ 0.0981 µg/mL); in assay [1] it was 32.6 µM (≈ 16 µg/mL); in assay [2], 2 µM (≈ 0.981 µg/mL); in assay [3], above 2090 µM.
As for `O=C(Cn1cc(CN2CCN(c3cc4c(cc3F)c(=O)c(C(=O)O)cn4C3CC3)CC2)nn1)N[C@@H](Cc1ccccc1)C(=O)O`, the MIC in assay [1], in assay [2] and in assay [3] was 2020 µM (≈ 1250 µg/mL) each time.
On to `O=C(O)c1cn(C2CC2)c2cc(N3CCN(Cc4cn(-c5ccccc5)nn4)CC3)c(F)cc2c1=O`, for which the MIC in assay [4] was 0.2 µM (≈ 0.0977 µg/mL); in assay [1] it was 0.2 µM (≈ 0.0977 µg/mL); in assay [2] it was 16.4 µM (≈ 8.01 µg/mL); in assay [3] it was above 2100 µM.
`C#CCN1CCN(c2ncc3c(=O)c(C(=O)O)cn(CC)c3n2)CC1`: the MIC in assay [4] is 750 µM (≈ 256 µg/mL); in assay [1] it was above 3000 µM; in assay [2] it was 750 µM (≈ 256 µg/mL); in assay [3], above 3000 µM.
In the case of `CCn1cc(C(=O)O)c(=O)c2cnc(N3CCN(Cc4cn(CC(=O)N[C@@H](Cc5ccccc5)C(=O)O)nn4)CC3)nc21`, the figures for the MIC in assay [1], in assay [2] and in assay [3] were 212 µM (≈ 125 µg/mL), 2120 µM (≈ 1250 µg/mL) and 2120 µM (≈ 1250 µg/mL), respectively.
Turning to `CCn1cc(C(=O)O)c(=O)c2cnc(N3CCN(Cc4cn(-c5ccc([N+](=O)[O-])cc5)nn4)CC3)nc21`, the MIC is 0.2 µM (≈ 0.101 µg/mL) in assay [4], 0.2 µM (≈ 0.101 µg/mL) in assay [1], 127 µM (≈ 64 µg/mL) in assay [2] and 1010 µM (≈ 512 µg/mL) in assay [3].
